Reference: patent publication US10517889B2, “Modulators of SMAD7 expression” (Ionis Pharmaceuticals, Inc., priority 2017, dated 2019)
Strand notation (5' to 3'): a small letter for the sugar, then the base; units joined by * are phosphorothioate-linked, units joined directly phosphodiester-linked; [ ] holds rarer units or linkages, { } end groups; capitals alone tell only the bases. k = constrained ethyl (cEt); [5mC] = 5-methylcytosine; d = 2'-deoxy (DNA)

These substances were tested on human SMAD7 mRNA (assay: Antisense inhibition of human SMAD7 mRNA expression in Hep3B cells by 3-10-3 cEt gapmers, 10,000 nM, electroporation (Example 2)). Settings: Hep3B cells, electroporation with 10,000 nM antisense oligonucleotide, approximately 24 hours, SMAD7 mRNA by RT-PCR (RTS5062), relative to untreated control cells.
Assay type: cell-based
Method in brief: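 SMAD7 mRNA was measured by real-time PCR (RTS5062) with RiboGreen total-RNA normalization, about 24 h after 10,000 nM gapmer was delivered by electroporation into Hep3B cells at 20,000 per well. Gapmers were 16-mer 3-10-3 cEt, fully phosphorothioate; values are % inhibition versus untreated controls.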
“798713 (antisense kG*k[5mC]*k[5mC]*dG*d[5mC]*d[5mC]*dA*d[5mC]*d[5mC]*dG*dG*d[5mC]*d[5mC]*k[5mC]*k[5mC]*kA) [compound 798713]” was tested, and the “% Inhibition” value was 45%. With “798714 (antisense kG*kG*k[5mC]*d[5mC]*dG*d[5mC]*d[5mC]*dG*d[5mC]*d[5mC]*dA*d[5mC]*d[5mC]*kG*kG*k[5mC]) [compound 798714]” the “% Inhibition” value was 0%. For “798715 (antisense kG*k[5mC]*k[5mC]*d[5mC]*dG*dG*dG*d[5mC]*d[5mC]*dG*d[5mC]*d[5mC]*dG*k[5mC]*k[5mC]*kA) [compound 798715]”, the “% Inhibition” value was 0%. For “798716 (antisense k[5mC]*k[5mC]*kT*dG*d[5mC]*d[5mC]*d[5mC]*dG*dG*dG*d[5mC]*d[5mC]*dG*k[5mC]*k[5mC]*kG) [compound 798716]”, the “% Inhibition” value was 0%. “798717 (antisense kA*kG*k[5mC]*d[5mC]*d[5mC]*dT*dG*d[5mC]*d[5mC]*d[5mC]*dG*dG*dG*k[5mC]*k[5mC]*kG) [compound 798717]” was tested, and the “% Inhibition” value was 18%. For “798718 (antisense kA*kT*k[5mC]*d[5mC]*dA*dG*d[5mC]*d[5mC]*d[5mC]*dT*dG*d[5mC]*d[5mC]*k[5mC]*kG*kG) [compound 798718]”, the “% Inhibition” value was 37%. “798719 (antisense kA*kG*k[5mC]*dA*dT*d[5mC]*d[5mC]*dA*dG*d[5mC]*d[5mC]*d[5mC]*dT*kG*k[5mC]*k[5mC]) [compound 798719]” was tested, and the “% Inhibition” value was 34%. For “798720 (antisense kG*kG*k[5mC]*dA*dG*d[5mC]*dA*dT*d[5mC]*d[5mC]*dA*dG*d[5mC]*k[5mC]*k[5mC]*kT) [compound 798720]”, the “% Inhibition” value was 25%. “798721 (antisense kG*k[5mC]*k[5mC]*d[5mC]*dA*dG*dG*d[5mC]*dA*dG*d[5mC]*dA*dT*k[5mC]*k[5mC]*kA) [compound 798721]” was tested, and the “% Inhibition” value was 41%. In the case of “798722 (antisense k[5mC]*kT*kT*dG*d[5mC]*d[5mC]*d[5mC]*dA*dG*dG*d[5mC]*dA*dG*k[5mC]*kA*kT) [compound 798722]”, the “% Inhibition” value is reported as 0%. For “798734 (antisense kG*k[5mC]*k[5mC]*d[5mC]*dG*d[5mC]*dG*dG*d[5mC]*dT*dG*dG*d[5mC]*kG*kG*kG) [compound 798734]”, the “% Inhibition” value was 0%. In the case of “798735 (antisense k[5mC]*k[5mC]*k[5mC]*d[5mC]*d[5mC]*dG*dG*d[5mC]*d[5mC]*dG*d[5mC]*dG*d[5mC]*k[5mC]*kG*kG) [compound 798735]”, the “% Inhibition” value is reported as 0%. “798736 (antisense kG*k[5mC]*kG*d[5mC]*d[5mC]*d[5mC]*d[5mC]*d[5mC]*dG*dG*d[5mC]*d[5mC]*dG*k[5mC]*kG*k[5mC]) [compound 798736]” was tested, and the “% Inhibition” value was 0%. “798737 (antisense k[5mC]*kA*kG*dA*dT*d[5mC]*d[5mC]*dG*d[5mC]*d[5mC]*dT*d[5mC]*dG*kG*k[5mC]*kG) [compound 798737]” was tested, and the “% Inhibition” value was 2%. In the case of “798738 (antisense k[5mC]*kT*kT*d[5mC]*dA*dG*dA*dT*d[5mC]*d[5mC]*dG*d[5mC]*d[5mC]*kT*k[5mC]*kG) [compound 798738]”, the “% Inhibition” value is reported as 25%. In the case of “798739 (antisense k[5mC]*kG*k[5mC]*d[5mC]*dT*dT*d[5mC]*dA*dG*dA*dT*d[5mC]*d[5mC]*kG*k[5mC]*k[5mC]) [compound 798739]”, the “% Inhibition” value is reported as 37%. “798740 (antisense kT*kT*kG*dA*dG*d[5mC]*dA*d[5mC]*d[5mC]*dG*dA*dG*dT*kG*k[5mC]*kG) [compound 798740]” was tested, and the “% Inhibition” value was 56%. For “798741 (antisense k[5mC]*kT*kT*d[5mC]*dA*dG*dT*dT*dT*d[5mC]*dT*dT*dG*kA*kG*k[5mC]) [compound 798741]”, the “% Inhibition” value was 17%.

Same assay, conditions: Hep3B cells, electroporation with 10,000 nM antisense oligonucleotide, approximately 24 hours, primer probe set RTS5062, relative to untreated control cells
With “798709 (antisense kT*kG*k[5mC]*dG*d[5mC]*dT*d[5mC]*dG*dG*d[5mC]*dT*dG*dT*k[5mC]*k[5mC]*kG) [compound 798709]” the “% inhibition of SMAD7 mRNA expression” value was 2%. In the case of “798710 (antisense k[5mC]*k[5mC]*k[5mC]*d[5mC]*dA*dT*dG*d[5mC]*dG*d[5mC]*dT*d[5mC]*dG*kG*k[5mC]*kT) [compound 798710]”, the “% inhibition of SMAD7 mRNA expression” value is reported as 54%. In the case of “798711 (antisense k[5mC]*kG*kG*d[5mC]*d[5mC]*d[5mC]*d[5mC]*dA*dT*dG*d[5mC]*dG*d[5mC]*kT*k[5mC]*kG) [compound 798711]”, the “% inhibition of SMAD7 mRNA expression” value is reported as 59%. “798712 (antisense kG*k[5mC]*k[5mC]*dA*d[5mC]*d[5mC]*dG*dG*d[5mC]*d[5mC]*d[5mC]*d[5mC]*dA*kT*kG*k[5mC]) [compound 798712]” was tested, and the “% inhibition of SMAD7 mRNA expression” value was 6%. “798723 (antisense k[5mC]*kG*k[5mC]*d[5mC]*dT*dT*dG*d[5mC]*d[5mC]*d[5mC]*dA*dG*dG*k[5mC]*kA*kG) [compound 798723]” was tested, and the “% inhibition of SMAD7 mRNA expression” value was 0%. In the case of “798724 (antisense k[5mC]*kA*k[5mC]*d[5mC]*dG*d[5mC]*d[5mC]*dT*dT*dG*d[5mC]*d[5mC]*d[5mC]*kA*kG*kG) [compound 798724]”, the “% inhibition of SMAD7 mRNA expression” value is reported as 19%. For “798725 (antisense kT*k[5mC]*kG*d[5mC]*dA*d[5mC]*d[5mC]*dG*d[5mC]*d[5mC]*dT*dT*dG*k[5mC]*k[5mC]*k[5mC]) [compound 798725]”, the “% inhibition of SMAD7 mRNA expression” value was 29%. In the case of “798726 (antisense k[5mC]*kA*k[5mC]*d[5mC]*dT*d[5mC]*dG*d[5mC]*dA*d[5mC]*d[5mC]*dG*d[5mC]*k[5mC]*kT*kT) [compound 798726]”, the “% inhibition of SMAD7 mRNA expression” value is reported as 7%. In the case of “798727 (antisense kT*kG*kG*d[5mC]*dA*d[5mC]*d[5mC]*dT*d[5mC]*dG*d[5mC]*dA*d[5mC]*k[5mC]*kG*k[5mC]) [compound 798727]”, the “% inhibition of SMAD7 mRNA expression” value is reported as 51%. In the case of “798728 (antisense k[5mC]*kT*kT*dT*dG*dG*d[5mC]*dA*d[5mC]*d[5mC]*dT*d[5mC]*dG*k[5mC]*kA*k[5mC]) [compound 798728]”, the “% inhibition of SMAD7 mRNA expression” value is reported as 41%. In the case of “798729 (antisense kG*kA*k[5mC]*d[5mC]*dT*dT*dT*dG*dG*d[5mC]*dA*d[5mC]*d[5mC]*kT*k[5mC]*kG) [compound 798729]”, the “% inhibition of SMAD7 mRNA expression” value is reported as 51%. In the case of “798730 (antisense kG*kG*kT*dG*dA*d[5mC]*d[5mC]*dT*dT*dT*dG*dG*d[5mC]*kA*k[5mC]*k[5mC]) [compound 798730]”, the “% inhibition of SMAD7 mRNA expression” value is reported as 0%. For “798731 (antisense kG*kG*kT*dG*dG*dT*dG*dA*d[5mC]*d[5mC]*dT*dT*dT*kG*kG*k[5mC]) [compound 798731]”, the “% inhibition of SMAD7 mRNA expression” value was 43%. “798732 (antisense kG*kG*kA*dT*dG*dG*dT*dG*dG*dT*dG*dA*d[5mC]*k[5mC]*kT*kT) [compound 798732]” was tested, and the “% inhibition of SMAD7 mRNA expression” value was 51%. “798742 (antisense k[5mC]*kT*k[5mC]*d[5mC]*dT*dT*d[5mC]*dA*dG*dT*dT*dT*d[5mC]*kT*kT*kG) [compound 798742]” was tested, and the “% inhibition of SMAD7 mRNA expression” value was 30%. In the case of “798743 (antisense kT*kG*k[5mC]*d[5mC]*dG*d[5mC]*dT*d[5mC]*d[5mC]*dT*dT*d[5mC]*dA*kG*kT*kT) [compound 798743]”, the “% inhibition of SMAD7 mRNA expression” value is reported as 19%.
